Reference: patent publication US8772500B2, “TRPV3 modulators” (AbbVie Inc., priority 2011, dated 2014)
pIC50: −log10 of the molar value. Where two headings read alike, the source gives them in different places.

Key:
human TRPV3 = target: T1, human TRPV3 (Homo sapiens, UniProt Q8NET8); assay: In vitro antagonism of recombinant human TRPV3 activation (FLIPR Tetra calcium assay, 2-APB as agonist); format: cell-based; conditions: HEK293 cells stably expressing human TRPV3, 2-APB 80 μM
T1 construct: expressed in transfected cells
T1 sequence (Q8NET8 1-790): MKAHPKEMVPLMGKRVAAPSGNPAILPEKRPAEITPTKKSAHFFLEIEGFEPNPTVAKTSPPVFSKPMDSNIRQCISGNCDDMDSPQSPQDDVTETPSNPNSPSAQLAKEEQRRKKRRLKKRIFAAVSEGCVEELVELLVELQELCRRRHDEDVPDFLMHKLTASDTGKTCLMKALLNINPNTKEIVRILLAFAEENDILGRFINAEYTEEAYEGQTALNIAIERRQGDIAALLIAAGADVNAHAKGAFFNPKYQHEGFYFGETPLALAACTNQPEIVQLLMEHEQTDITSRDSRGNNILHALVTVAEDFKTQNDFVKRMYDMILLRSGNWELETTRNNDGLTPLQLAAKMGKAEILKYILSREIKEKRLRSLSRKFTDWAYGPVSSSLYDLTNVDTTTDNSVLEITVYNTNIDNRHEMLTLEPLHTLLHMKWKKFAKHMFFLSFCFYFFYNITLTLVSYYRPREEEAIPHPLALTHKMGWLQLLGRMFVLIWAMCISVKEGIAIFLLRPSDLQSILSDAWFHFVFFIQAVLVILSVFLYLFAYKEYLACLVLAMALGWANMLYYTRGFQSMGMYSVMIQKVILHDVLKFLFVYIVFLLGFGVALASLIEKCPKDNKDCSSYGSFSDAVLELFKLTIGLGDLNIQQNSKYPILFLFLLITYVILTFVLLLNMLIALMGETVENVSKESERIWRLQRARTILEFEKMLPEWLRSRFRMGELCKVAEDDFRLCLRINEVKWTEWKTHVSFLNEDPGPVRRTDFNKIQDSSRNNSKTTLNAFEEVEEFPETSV
Description: Test compounds were evaluated for ability to antagonize the activation of recombinant human TRPV3 using FLIPR® Tetra cellular screening. Specifically, on the day prior to the experiment recombinant HEK293 cells that stably express human TRPV3 were removed from tissue culture flasks and plated in growth medium at 20,000 cells/well into Poly-d-lysine coated black/clear 384-well Plate (Corning, 3845) using a Multidrop® dispenser (ThermoScientific, Waltham, Mass.). Prior to the start of the assay, the medium was removed by aspiration, and cells were loaded with 30 μL no-wash FLIPR® Calcium-4 dye (λEX=470-495 nm, λEM=515-575 nm; Molecular Devices, Sunnyvale, Calif.). The cells were then incubated for 90-120 minutes in the dark prior to addition of the test compound.
A double-addition protocol was used. The test compound (i.e., the TRPV3 antagonist) was added at the 10 second time point, followed by the addition of a TRPV3 agonist three minutes later. Each test compound evaluated was first dissolved in DMSO to prepare a 10 mM stock solution. A solution (5×) of the test compound was then prepared in DPBS (Dulbecco's Phosphate Buffered Saline) and 10 μL of that solution was added to the cells at a delivery rate of 40 μL/sec. The TRPV3 agonist used to activate human TRPV3 expressed by the […] was 2-aminoethoxy-diphenyl borate (2-APB; Tocris Cookson, Ellisville, Mo.) at 80 μM. Final assay volume was 50 μL. Total length of an experimental run was 10 minutes.
Changes in fluorescence were measured over time using the FLIPR® instrument. The intensity of the fluorescence was captured and digitally transferred to an interfaced computer. The maximum response minus minimum response was calculated and expressed as the percentage of the maximum 2-APB response in the absence of antagonist. The concentration of 2-APB corresponds to its EC80.
Table 1 reports the IC50 values measured for the test compounds as human TRPV3 antagonists. […] Actual measured values are shown parenthetically after the reported range. In most cases, the values reported are average values from at least two runs (i.e., n≧2).

[1] = In vitro human microsomal stability assay; format: in vitro ADME; conditions: for HUMAN […] (% REMAINING AFTER 30 MINUTES): 0.5 μM substrate, 0.25 mg/mL microsomal protein, pH 7.4, 37° C., NADPH; for HUMAN MICROSOMAL STABILITY (% REMAINING AFTER 30 MINUTES): 0.5 h, 0.5 μM, pH 7.4
Outline: (§1)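 Liver microsomes: Sprague-Dawley rat for rat assay, human for human assay; 37 °C; NADPH cofactor, also spiked into time-zero plates.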

[2] = In vitro rat microsomal stability assay; format: in vitro ADME, rat (Sprague-Dawley); conditions: for RAT […] (% REMAINING AFTER 30 MINUTES): 0.5 μM substrate, 0.25 mg/mL microsomal protein, pH 7.4, 37° C., NADPH; for RAT MICROSOMAL STABILITY (% REMAINING AFTER 30 MINUTES): Sprague-Dawley, 0.5 h, 0.5 μM, pH 7.4
Outline: as §1

[3] = range class, read-out: IC50 (reported range)
[4] = mostly average of n≧2, read-out: IC50 (actual measured value, shown parenthetically)

SMILES | pIC50 (human TRPV3; [3]) | HUMAN […] (% REMAINING AFTER 30 MINUTES) [1] | RAT […] (% REMAINING AFTER 30 MINUTES) [2] | HUMAN MICROSOMAL STABILITY (% REMAINING AFTER 30 MINUTES) [1] | RAT MICROSOMAL STABILITY (% REMAINING AFTER 30 MINUTES) [2] | pIC50 (human TRPV3; [4])
O[C@H](c1ccccn1)[C@]1(c2cccc(C(F)(F)F)c2)C[C@@H](O)C1 (relative stereo) [Example 264, trans-3-[(S)-hydroxy(pyridin-2-yl)methyl]-3-[3-(trifluoromethyl)phenyl]-cyclobutanol] | 6.30 to 7.30 | 56% | 59% | – | – | –
OC1CC(c2ccc(Cl)c(Cl)c2)(C(O)c2ccccn2)C1 (single isomer, unassigned) [Example 118] | 6.30 to 7.30 | – | – | >85% | 74% | –
OC1CC(c2ccc(Cl)c(Cl)c2)(C(O)c2ccccn2)C1 (single isomer, unassigned) [Example 119] | 6.00 to 6.30 | – | – | >85% | 69% | –
CC1(O)CC(c2ccc(OC(F)(F)F)cc2)(C(O)c2ccccn2)C1 (single isomer, unassigned) [Example 134] | 6.00 to 6.30 | – | – | 78% | 72% | –
CC1(O)CC(c2ccc(C(F)(F)F)cc2)(C(O)c2ccccn2)C1 (single isomer, unassigned) [Example 232] | 5.30 to 5.96 | – | – | 80% | 67% | –
CC1(O)CC(c2cccc(C(F)(F)F)c2)(C(O)c2ccccn2)C1 (single isomer, unassigned) [Example 236] | 6.00 to 6.30 | – | – | 54% | 41% | –
OC(c1ccccn1)C1(C2=CCCOC2)CCC1 (single isomer, unassigned) [Example 269, [1-(5,6-dihydro-2H-pyran-3-yl)cyclobutyl](pyridin-2-yl)methanol] | 4.70 to 5.29 | – | – | 40% | 12% | 4.95
OC(c1ccccn1)C1(C2=COCCC2)CCC1 (single isomer, unassigned) [Example 270, [1-(3,4-dihydro-2H-pyran-5-yl)cyclobutyl](pyridine-2-yl)methanol] | 5.30 to 5.96 | – | – | 17% | 0.48% | 5.40
OC1CC(c2cc(C(F)(F)F)ccn2)(C(O)c2ccccn2)C1 (single isomer, unassigned) [Example 290] | < 4.70 | – | – | >85% | 71% | –
CC1(O)CC(c2ccc(C(F)(F)F)cc2)([C@H](O)c2ccccn2)C1 (stereo in doubt) [Example 233, trans-3-[(S)-hydroxy(pyridin-2-yl)methyl]-1-methyl-3-[4-(trifluoromethyl)-phenyl]cyclobutanol] | 4.70 to 5.29 | >85% | 67% | – | – | –
OC(c1ccccn1)C1(c2ccccc2F)CCC1 (centres unmarked) [Example 1, [1-(2-fluorophenyl)cyclobutyl](pyridin-2-yl)methanol] | 5.30 to 5.96 | – | – | 0.38% | 0.48% | –
OC(c1ccccn1)C1(c2cccc(F)c2)CCC1 (centres unmarked) [Example 2, [1-(3-fluorophenyl)cyclobutyl](pyridin-2-yl)methanol] | 6.30 to 7.30 | – | – | 17% | 0.64% | –
OC(c1ccccn1)C1(c2ccc(F)cc2)CCC1 (centres unmarked) [Example 3, [1-(4-fluorophenyl)cyclobutyl](pyridin-2-yl)methanol] | 6.00 to 6.30 | – | – | 28% | 3.8% | –
OC(c1ccccn1)C1(c2ccc(F)c(F)c2)CCC1 (centres unmarked) [Example 4, [1-(3,4-difluorophenyl)cyclobutyl](pyridin-2-yl)methanol] | 6.30 to 7.30 | – | – | 19% | 4.2% | –
OC(c1ccccn1)C1(c2ccccc2C(F)(F)F)CCC1 (centres unmarked) [Example 5, pyridin-2-yl{1-[2-(trifluoromethyl)phenyl]cyclobutyl}methanol] | 4.70 to 5.29 | – | – | 0.27% | 0.06% | –
OC(c1ccccn1)C1(c2cccc(C(F)(F)F)c2)CCC1 (centres unmarked) [Example 6, pyridin-2-yl{1-[3-(trifluoromethyl)phenyl]cyclobutyl}methanol] | 6.30 to 7.30 | – | – | 1.2% | 2.3% | –
Cc1ccccc1C1(C(O)c2ccccn2)CCC1 (centres unmarked) [Example 7, [1-(2-methylphenyl)cyclobutyl](pyridin-2-yl)methanol] | 4.70 to 5.29 | – | – | 0.15% | 0.32% | –
Cc1cccc(C2(C(O)c3ccccn3)CCC2)c1 (centres unmarked) [Example 8, [1-(3-methylphenyl)cyclobutyl](pyridin-2-yl)methanol] | 6.30 to 7.30 | – | – | 0.13% | 0.73% | –
Cc1ccc(C2(C(O)c3ccccn3)CCC2)cc1 (centres unmarked) [Example 9, [1-(4-methylphenyl)cyclobutyl](pyridin-2-yl)methanol] | 5.30 to 5.96 | – | – | 0.12% | 0.18% | –
OC(c1ccccn1)C1(c2ccccc2OC(F)(F)F)CCC1 (centres unmarked) [Example 10, pyridin-2-yl{1-[2-(trifluoromethoxy)phenyl]cyclobutyl}methanol] | 5.30 to 5.96 | – | – | 0.42% | 0.62% | –
OC(c1ccccn1)C1(c2cccc(OC(F)(F)F)c2)CCC1 (centres unmarked) [Example 11, pyridin-2-yl{1-[3-(trifluoromethoxy)phenyl]cyclobutyl}methanol] | 6.30 to 7.30 | – | – | 0.72% | 0.80% | –
